Measurements from patent US11040028B2, “Penicinotam derivative, preparation method and use thereof” (OCEAN UNIVERSITY OF CHINA, priority 2017, dated 2021).
Like-named read-outs stand apart in the source and are kept apart here.

Key:
Format in all cases: cell-based
[1] = test system: human lung fibroblasts HFL1; experiment: Anti-fibrosis activity test: inhibition of proliferation of human lung fibroblasts HFL1 (CCK-8); details: Homo sapiens, HFL1, 48 h
In short: (§1)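 48 h compound treatment of fibroblast-type cells seeded at 2×10^4 cells/mL, 37° C, 5% CO2; viability by CCK-8 (2 h, A450). Inhibition rate calculated against blank control, IC50 by curve fitting; pirfenidone served as reference.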

[2] = test system: human dermal fibroblasts CCC-ESF-1; experiment: Anti-fibrosis activity test: inhibition of proliferation of human dermal fibroblasts CCC-ESF-1 (CCK-8); details: Fibroblast
In short: as §1

[3] = test system: cardiac fibroblast RAT-iCell-C002; experiment: Anti-fibrosis activity test: inhibition of proliferation of cardiac fibroblast RAT-iCell-C002 (CCK-8); details: Cardiac fibroblast, 48 h
In short: as §1

[4] = test system: human hepatic stellate cells LX-2; experiment: Anti-fibrosis activity test: inhibition of proliferation of human hepatic stellate cells LX-2 (CCK-8); details: Homo sapiens, 48 h
In short: as §1

[5] = test system: mouse macrophages (RAW264.7); experiment: Lipopolysaccharide-induced NO secretion in macrophages (Griess); details: RAW264.7, LPS 1 μg/ml, a/b isomers given as first/second symbol, read-out: IC50 (μM), inhibition of lipopolysaccharide-induced NO secretion in macrophages
In short: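 RAW264.7 macrophages in DMEM with 10% FBS received test samples at several concentrations and were stimulated with 1 μg/ml LPS for 24 h. NO in the supernatant was measured with the Griess reagent at 548 nm, […].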

[6] = test system: human fibrosarcoma cells HT-1080; experiment: Anti-fibrosis activity test: inhibition of proliferation of human fibrosarcoma cells HT-1080 (CCK-8); details: Homo sapiens, HT-1080, 48 h
In short: as §1

[7] = test system: human embryonic lung fibroblast IMR-90; experiment: Anti-fibrosis activity test: inhibition of proliferation of human embryonic lung fibroblast IMR-90 (CCK-8)
In short: as §1

[8] = test system: BHK-21 cells; experiment: Anti-fibrosis activity test: inhibition of BHK-21 cell proliferation (CCK-8); details: Mesocricetus auratus, BHK-21, 48 h
In short: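 Read-out: CCK-8 absorbance at 450 nm after 2 h, giving proliferation inhibition (1−Ai/Ao)×100% versus blank control, from which IC50 was derived. Cells had been treated with compounds for 48 h after 24 h adherence at 37° C. Pirfenidone served as positive control.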

[9] = human lung fibroblasts HFL1, CCK-8, 48 hours
[10] = human dermal fibroblasts CCC-ESF-1, CCK-8, 48 hours
[11] = cardiac fibroblast RAT-iCell-C002, CCK-8, 48 hours
[12] = human hepatic stellate cells LX-2, CCK-8, 48 hours
[13] = human fibrosarcoma cells HT-1080, CCK-8, 48 hours
[14] = human embryonic lung fibroblast IMR-90, CCK-8, 48 hours
[15] = CCK-8, 48 hours after administration
[16] = Homo sapiens, CCC-ESF-1 cells, 48 h, CCK-8
[17] = Homo sapiens, IMR-90 cells, 48 h, CCK-8

IC50 ([5]; Mus musculus, RAW264.7, 24 h)	IC50 [6, 13]	IC50 ([6]; HT-1080 cells, 48 h, CCK-8)	IC50 ([5]; 24 hours)	SMILES	IC50 [1, 9]	IC50 [2, 10]	IC50 [3, 11]	IC50 [4, 12]	IC50 [7, 14]	IC50 [8, 15]	IC50 ([1]; HFL1 cells, 48 h, CCK-8)	IC50 [2, 16]	IC50 ([3]; RAT-iCell-C002 cells, CCK-8)	IC50 ([4]; LX-2, 48 h, LX-2 cells, CCK-8)	IC50 [7, 17]	IC50 ([8]; 48 h, CCK-8)
1 to 10 µM	0.05 to 5 mM	–	–	O=C1c2c([nH]c3ccc(Cl)cc3c2=O)-c2cccn21 [Compound 180a, 7-Chloro-9H-pyrrolizino[1,2-b]quinoline-9,10(4H)-dione]	0.05 to 5 mM	0.05 to 5 mM	0.05 to 5 mM	0.05 to 5 mM	0.05 to 5 mM	20 to 100 mM	–	–	–	–	–	–
0.1 to 1 µM	0.05 to 5 mM	–	–	O=C1c2c(n(-c3ccc(Cl)cc3)c3ccc(OC(F)(F)F)cc3c2=O)-c2cccn21 [Compound 300a, 4-(4-Chlorophenyl)-7-(trifluoromethoxy)-9H-pyrrolizino[1,2-b]quinoline-9,10(4H)-dione]	0.05 to 5 mM	0.05 to 5 mM	0.05 to 5 mM	0.05 to 5 mM	0.05 to 5 mM	5 to 20 mM	–	–	–	–	–	–
1 to 10 µM	–	0.05 to 5 mM	–	Cc1ccc2nc3c(c(O)c2c1)-c1cccn1C3=O [Compound 777b, 11-hydroxy-9-methyl-5H-pyrrolizino[2,1-b]quinolin-5-one]	–	–	–	–	–	–	0.05 to 5 mM	0.05 to 5 mM	0.05 to 5 mM	0.05 to 5 mM	0.05 to 5 mM	0.05 to 5 mM
1 to 10 µM	0.05 to 5 mM	–	–	O=C1c2c(n(CCO)c3ccc(F)cc3c2=O)-c2cccn21 [Compound 114a, 7-Fluoro-4-(2-hydroxyethyl)-9H-pyrrolizino[1,2-b]quinoline-9,10(4H)-dione]	0.05 to 5 mM	0.05 to 5 mM	0.05 to 5 mM	0.05 to 5 mM	0.05 to 5 mM	< 0.05 mM	–	–	–	–	–	–
1 to 10 µM	0.05 to 5 mM	–	–	O=C1c2c(nc3cc(Cl)ccc3c2OCc2ccccc2F)-c2cccn21 [Compound 504b, 6-chloro-9-((2-fluorobenzyl)oxy)-10H-pyrrolizino[1,2-b]quinolin-10-one]	0.05 to 5 mM	0.05 to 5 mM	0.05 to 5 mM	0.05 to 5 mM	0.05 to 5 mM	0.05 to 5 mM	–	–	–	–	–	–
1 to 10 µM	0.05 to 5 mM	–	–	O=C(O)COc1c2c(nc3ccc(F)cc13)-c1cccn1C2=O [Compound 153b, 2-((7-fluoro-10-oxo-10H-pyrrolizino[1,2-b]quinolin-9-yl)oxy)acetic acid]	0.05 to 5 mM	0.05 to 5 mM	0.05 to 5 mM	0.05 to 5 mM	0.05 to 5 mM	0.05 to 5 mM	–	–	–	–	–	–
1 to 10 µM	0.05 to 5 mM	–	–	O=C1c2c([nH]c3cccc(F)c3c2=O)-c2cccn21 [Compound 467a, 8-Fluoro-9H-pyrrolizino[1,2-b]quinoline-9,10(4H)-dione]	0.05 to 5 mM	0.05 to 5 mM	0.05 to 5 mM	0.05 to 5 mM	0.05 to 5 mM	< 0.05 mM	–	–	–	–	–	–
10 to 50 µM	0.05 to 5 mM	–	–	O=C1c2c(n(Cc3ccc(F)cc3)c3cc(F)ccc3c2=O)-c2cccn21 [Compound 490a, 6-Fluoro-4-(4-fluorobenzyl)-9H-pyrrolizino[1,2-b]quinoline-9,10(4H)-dione]	0.05 to 5 mM	0.05 to 5 mM	< 0.05 mM	0.05 to 5 mM	0.05 to 5 mM	0.05 to 5 mM	–	–	–	–	–	–
1 to 10 µM	5 to 20 mM	–	–	O=C1c2c(nc3c(C(F)(F)F)cccc3c2OCc2ccc(Cl)cc2)-c2cccn21 [Compound 450b, 9-((4-chlorobenzyl)oxy)-5-(trifluoromethyl)-10H-pyrrolizino[1,2-b]quinolin-10-one]	0.05 to 5 mM	0.05 to 5 mM	0.05 to 5 mM	0.05 to 5 mM	0.05 to 5 mM	0.05 to 5 mM	–	–	–	–	–	–
1 to 10 µM	0.05 to 5 mM	–	–	O=C1c2c(n(Cc3ccccc3F)c3cc(Cl)ccc3c2=O)-c2cccn21 [Compound 504a, 6-Chloro-4-(2-fluorobenzyl)-9H-pyrrolizino[1,2-b]quinoline-9,10(4H)-dione]	0.05 to 5 mM	0.05 to 5 mM	0.05 to 5 mM	0.05 to 5 mM	0.05 to 5 mM	< 0.05 mM	–	–	–	–	–	–

The remaining lines, values behind:

SMILES	IC50 ([5]; Mus musculus, RAW264.7, 24 h)	IC50 [6, 13]	IC50 ([6]; HT-1080 cells, 48 h, CCK-8)	IC50 ([5]; 24 hours)	IC50 [1, 9]	IC50 [2, 10]	IC50 [3, 11]	IC50 [4, 12]	IC50 [7, 14]	IC50 [8, 15]	IC50 ([1]; HFL1 cells, 48 h, CCK-8)	IC50 [2, 16]	IC50 ([3]; RAT-iCell-C002 cells, CCK-8)	IC50 ([4]; LX-2, 48 h, LX-2 cells, CCK-8)	IC50 [7, 17]	IC50 ([8]; 48 h, CCK-8)
N#Cc1cccc2c(OCc3ccccc3F)c3c(nc12)-c1cccn1C3=O [Compound 456b, 9-((2-fluorobenzyl)oxy)-10-oxo-10H-pyrrolizino[1,2-b]quinoline-5-carbonitrile]	1 to 10 µM	0.05 to 5 mM	–	–	0.05 to 5 mM	0.05 to 5 mM	0.05 to 5 mM	0.05 to 5 mM	0.05 to 5 mM	0.05 to 5 mM	–	–	–	–	–	–
O=C1c2c(nc3c(F)c(N4CCNCC4)ccc3c2OCc2ccc(Cl)cc2)-c2cccn21 [Compound 484b, 9-((4-chlorobenzyl)oxy)-5-fluoro-6-(piperazin-1-yl)-10H-pyrrolizino[1,2-b]quinolin-10-one]	1 to 10 µM	0.05 to 5 mM	–	–	0.05 to 5 mM	0.05 to 5 mM	0.05 to 5 mM	0.05 to 5 mM	0.05 to 5 mM	0.05 to 5 mM	–	–	–	–	–	–
O=C1c2nc3ccccc3c(OCCCN3CCNCC3)c2-c2cccn21 [Compound 793b, 11-(3-(piperazin-1-yl)propoxy)-5H-pyrrolizino[2,1-b]quinolin-5-one]	0.1 to 1 µM	–	0.05 to 5 mM	–	–	–	–	–	–	–	0.05 to 5 mM	0.05 to 5 mM	0.05 to 5 mM	0.05 to 5 mM	0.05 to 5 mM	0.05 to 5 mM
O=C1c2c(c(=O)c3ccccc3n2CCCN2CCCCC2)-c2cccn21 [Compound 786a, 6-(3-(Piperidin-1-yl)propyl)-5H-pyrrolizino[2,1-b]quinoline-5,11(6H)-dione]	1 to 10 µM	–	0.05 to 5 mM	–	–	–	–	–	–	–	0.05 to 5 mM	0.05 to 5 mM	0.05 to 5 mM	0.05 to 5 mM	0.05 to 5 mM	0.05 to 5 mM
Cc1cc(C)c2nc3c(c(O)c2c1)-c1cccn1C3=O [Compound 780b, 11-hydroxy-7,9-dimethyl-5H-pyrrolizino[2,1-b]quinolin-5-one]	1 to 10 µM	–	0.05 to 5 mM	–	–	–	–	–	–	–	0.05 to 5 mM	0.05 to 5 mM	0.05 to 5 mM	0.05 to 5 mM	0.05 to 5 mM	0.05 to 5 mM
O=C1c2nc3ccccc3c(OCCCCN3CCOCC3)c2-c2cccn21 [Compound 789b, 11-(4-morpholinobutoxy)-5H-pyrrolizino[2,1-b]quinolin-5-one]	1 to 10 µM	–	0.05 to 5 mM	–	–	–	–	–	–	–	0.05 to 5 mM	0.05 to 5 mM	0.05 to 5 mM	0.05 to 5 mM	0.05 to 5 mM	0.05 to 5 mM
O=C1c2c(n(Cc3ccc(Cl)cc3)c3c(C(F)(F)F)c(N4CCNCC4)ccc3c2=O)-c2cccn21 [Compound 483a, 4-(4-Chlorobenzyl)-6-(piperazin-1-yl)-5-(trifluoromethyl)-9H-pyrrolizino[1,2-b]quinoline-9,10(4H)-dione]	–	0.05 to 5 mM	–	10 to 50 µM	0.05 to 5 mM	0.05 to 5 mM	0.05 to 5 mM	0.05 to 5 mM	0.05 to 5 mM	< 0.05 mM	–	–	–	–	–	–
N#Cc1cccc2c1c(=O)c1c(n2Cc2cccc(F)c2)-c2cccn2C1=O [Compound 463a, 4-(3-Fluorobenzyl)-9,10-dioxo-4,10-dihydro-9H-pyrrolizino[1,2-b]quinoline-8-carbonitrile]	1 to 10 µM	5 to 20 mM	–	–	0.05 to 5 mM	0.05 to 5 mM	0.05 to 5 mM	0.05 to 5 mM	0.05 to 5 mM	0.05 to 5 mM	–	–	–	–	–	–
O=C1c2c(n(CCO)c3cc(N4CCNCC4)c(F)cc3c2=O)-c2cccn21 [Compound 348a, 7-Fluoro-4-(2-hydroxyethyl)-6-(piperazin-1-yl)-9H-pyrrolizino[1,2-b]quinoline-9,10(4H)-dione]	1 to 10 µM	0.05 to 5 mM	–	–	0.05 to 5 mM	0.05 to 5 mM	0.05 to 5 mM	0.05 to 5 mM	0.05 to 5 mM	20 to 100 mM	–	–	–	–	–	–
O=C1c2nc3ccccc3c(OCCN3CCCCC3)c2-c2cccn21 [Compound 784b, 11-(2-(piperidin-1-yl)ethoxy)-5H-pyrrolizino[2,1-b]quinolin-5-one]	1 to 10 µM	–	0.05 to 5 mM	–	–	–	–	–	–	–	0.05 to 5 mM	0.05 to 5 mM	0.05 to 5 mM	0.05 to 5 mM	0.05 to 5 mM	0.05 to 5 mM
